pIC50: −log10 of the molar value.

The target of the first assay is T1, Mineralocorticoid receptor (Homo sapiens, UniProt P08235).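 Note: antagonism at Gal4-fused mineralocorticoid receptor in human Huh7 cells, measured by luciferase reporter gene read-out.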
T1 sequence (P08235 whole entry): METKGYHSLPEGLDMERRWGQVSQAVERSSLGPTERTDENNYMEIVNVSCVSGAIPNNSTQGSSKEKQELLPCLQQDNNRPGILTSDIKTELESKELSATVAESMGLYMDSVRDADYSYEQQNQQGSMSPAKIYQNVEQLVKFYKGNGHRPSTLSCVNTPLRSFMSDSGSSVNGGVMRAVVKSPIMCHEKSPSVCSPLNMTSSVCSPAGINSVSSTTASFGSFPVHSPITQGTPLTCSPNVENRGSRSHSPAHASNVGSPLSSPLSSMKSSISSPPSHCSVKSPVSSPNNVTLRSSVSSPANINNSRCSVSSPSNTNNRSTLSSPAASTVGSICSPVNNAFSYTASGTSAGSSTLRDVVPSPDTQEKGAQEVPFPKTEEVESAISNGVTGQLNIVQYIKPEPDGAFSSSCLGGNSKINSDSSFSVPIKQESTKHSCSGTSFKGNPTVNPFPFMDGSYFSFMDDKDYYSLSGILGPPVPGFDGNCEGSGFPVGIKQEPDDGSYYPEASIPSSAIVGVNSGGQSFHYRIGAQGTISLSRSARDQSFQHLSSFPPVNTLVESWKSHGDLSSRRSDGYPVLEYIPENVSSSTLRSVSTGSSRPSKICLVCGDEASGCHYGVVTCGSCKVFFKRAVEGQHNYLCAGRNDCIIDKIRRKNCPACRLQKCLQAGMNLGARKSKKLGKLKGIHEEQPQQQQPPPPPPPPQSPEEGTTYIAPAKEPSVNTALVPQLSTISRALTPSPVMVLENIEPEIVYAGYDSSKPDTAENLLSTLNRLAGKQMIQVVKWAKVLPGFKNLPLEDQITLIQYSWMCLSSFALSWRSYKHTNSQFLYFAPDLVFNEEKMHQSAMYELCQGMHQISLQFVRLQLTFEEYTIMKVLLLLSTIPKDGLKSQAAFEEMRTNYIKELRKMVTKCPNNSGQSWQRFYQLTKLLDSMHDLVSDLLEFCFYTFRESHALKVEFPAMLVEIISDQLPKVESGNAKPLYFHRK
The format is functional, cell-based, Huh-7.
A word on the pIC50: it is the negative decadic logarithm of the IC50, by convention in mol/L. A high value points to a small IC50. Take `COCc1cc(N2N=C3c4ccc(C(=O)O)cc4CC[C@@H]3[C@@H]2C2CCCC2)ccc1C#N`: the pIC50 was 6.82.
Molecule `N#Cc1ccc(N2N=C(c3ccc(C(=O)O)cc3)C[C@@H]2c2ccc(F)cc2)cc1` had a pIC50 of 7.00.
The same measure, in the same setting: the figure for `N#Cc1ccc(N2N=C(c3ccc(C(=O)O)c(Cl)c3)C[C@@H]2C2CCCC2)cc1Cl` is 7.59; for `COc1cc(N2N=C3c4ccc(C(=O)O)cc4CC[C@@H]3[C@@H]2C2CCCC2)ccc1C#N` (racemic) it is 8.15.
Still for that read-out and setting: then `CC(C)CC1CC(c2ccc(C(=O)O)cc2)=NN1c1ccc(C#N)cc1` (racemic), with 5.60; and `N#Cc1ccc(N2N=C(c3ccc(C(=O)O)cc3)CC2Cc2ccccc2)cc1` (racemic), with 5.44.
On the same count and under the same terms, the figure for `Cc1cc(N2N=C3c4ccc(C(=O)O)cc4CC[C@@H]3[C@@H]2C2CCCC2)ccc1C#N` (racemic) is 8.40.
`N#Cc1ccc(N2N=C(c3ccc(C(=O)O)cc3)CC2c2ccc(F)cc2)c(Cl)c1` (racemic): the negative logarithm of the IC50 (pIC50) is 6.55.
Molecule `Cc1cc(N2N=C3c4ccc(C(=O)O)cc4CO[C@H]3[C@H]2C2CCCC2)ccc1C#N` (racemic) had a pIC50 of 7.41.
Molecule `CC(C)C1CC(c2ccc(C(=O)O)cc2)=NN1c1ccc(C#N)c(Cl)c1` (racemic) showed a pIC50 of 6.42.
Molecule `CN(C)CCN(C)C(=O)c1ccc(C2=NN(c3ccc(C#N)cc3)C(c3ccc(F)cc3)C2)cc1` (racemic) gave a pIC50 of 7.08.
Still for that read-out and setting: then `N#Cc1ccc(N2N=C(c3ccc4[nH]c(=O)oc4c3)CC2c2ccc(F)cc2)cc1` (racemic), with 7.24; and `Cc1cc(N2N=C(c3ccc(C(=O)O)cc3)CC2c2ccc(F)cc2)ccc1C#N` (racemic), with 7.25; and `O=[N+]([O-])c1ccc(N2N=C(c3ccc(O)cc3)CC2c2ccc(F)cc2)cc1` (racemic), with 6.34.
Still for that read-out and setting: the figure for `N#Cc1ccc(N2N=C(c3ccc(C(=O)O)cc3)CC2c2cccnc2)cc1` (racemic) is below 5.00; for `N#Cc1ccc(N2N=C3c4ccc(C(=O)O)cc4CO[C@H]3[C@H]2C2CCCC2)cc1Cl` (stereo in doubt) it is 6.84.
The same measure, in the same setting: the figure for `N#Cc1ccc(N2N=C(c3ccc(C(=O)O)cc3)CC2C2CCCC2)cc1Cl` (racemic) is 7.27.
Molecule `N#Cc1ccc(N2N=C(c3ccc(C(=O)O)cc3)CC2C2CCCCC2)cc1` (racemic) gave a pIC50 of 5.89.
Same read-out and setting: then `N#Cc1ccc(N2N=C(c3ccc(C(=O)O)cc3)CC2C2CCCC2)cc1` (racemic), with 6.82; and `N#Cc1ccc(N2N=C(c3ccc(C(=O)O)cc3)CC2c2ccco2)cc1` (racemic), with 6.39; and `N#Cc1ccc(N2N=C3c4ccc(C(=O)O)cc4CO[C@@H]3[C@@H]2C2CCCC2)cc1Cl` (stereo in doubt), with 7.19.
Same read-out and setting: the figure for `N#Cc1ccc(N2N=C(c3ccc(C(=O)O)cc3)CC2c2cccs2)cc1` (racemic) is 6.12; for `N#Cc1ccc(N2N=C(c3ccc(C(=O)O)cc3)CC2c2ccc(F)cc2)cc1F` (racemic) it is 6.61; for `Cc1nc(C)c(C2=NN(c3ccc(C#N)cc3)[C@@H](c3ccc(F)cc3)C2)s1` it is 7.49.
With `N#Cc1ccc(N2N=C(c3ccc4[nH]c(=O)oc4c3)C[C@@H]2c2ccc(F)cc2)cc1`, the negative-log IC50 (pIC50) was 7.39.
Same read-out and setting: then `N#Cc1ccc(N2N=C(c3ccc(C(=O)O)cc3)CC2c2ccc(F)cc2)cc1` (racemic), with 6.61; and `N#Cc1ccc(N2N=C(c3ccc(C(=O)O)cc3)CC2c2ccc(F)cc2)cc1C#N` (racemic), with below 6.00.
Same read-out and setting: the figure for `N#Cc1ccc(N2N=C(c3ccc(C(=O)O)cc3)CC2c2ccc(F)cc2)c(F)c1` (racemic) is 6.27; for `N#Cc1ccc(N2N=C(c3ccc(CC(=O)O)cc3)C[C@@H]2C2CCCC2)cc1Cl` it is 6.87.
`N#Cc1ccc(N2N=C(c3ccc(C(=O)O)c(OCCCO)c3)C[C@@H]2C2CCCC2)cc1Cl` showed a pIC50 of 7.89.
Still for that read-out and setting: the figure for `N#Cc1ccc(N2N=C3c4ccc(C(=O)O)cc4CC[C@@H]3[C@@H]2C2CCCC2)cc1OCc1ccccc1` (racemic) is 6.31; for `N#Cc1ccc(N2N=C3c4ccc(C(=O)O)cc4CC[C@@H]3[C@@H]2c2ccc(F)cc2)cc1` (racemic) it is 6.26; for `COc1cccc(C2CC(c3ccc(C(=O)O)cc3)=NN2c2ccc(C#N)cc2)c1` (racemic) it is 5.80.
In the case of `COc1ccc(N2N=C(c3ccc(C(=O)O)cc3)CC2c2ccc(F)cc2)cc1` (racemic), the pIC50 was 5.84.
Molecule `N#Cc1ccc(N2N=C(c3ccc4[nH]c(=O)oc4c3)CC2c2ccc(C(=O)O)cc2)cc1` (racemic) had a pIC50 below 5.00.
Same read-out and setting: then `COc1cc(C(=O)O)ccc1C1=NN(c2ccc(C#N)c(Cl)c2)[C@@H](C2CCCC2)C1`, with 8.70.
`N#Cc1ccc(N2N=C(c3ccc(C(=O)O)cc3)C[C@H]2c2ccc(F)cc2)cc1` had a pIC50 of 5.08.
`CCOC(=O)c1ccc(N2N=C(c3ccc(C(=O)O)cc3)CC2c2ccc(F)cc2)cc1` (racemic) gave a pIC50 of 6.74.
The same measure, in the same setting: the figure for `N#Cc1ccc(N2N=C(c3ccc4[nH]c(=O)oc4c3)C[C@H]2c2ccc(F)cc2)cc1` is 5.68; for `N#Cc1ccc(N2N=C3c4ccc(C(=O)O)cc4CC[C@@H]3[C@@H]2C2CCC2)cc1Cl` (racemic) it is 7.68.
As for `N#Cc1ccc(N2N=C(c3ccc(C(=O)O)cc3)CC2c2cccc(F)c2)cc1` (racemic), the pIC50 was 6.36.
As to `O=C(O)c1ccc(C2=NN(c3ccc(C(=O)O)cc3)C(c3ccc(F)cc3)C2)cc1` (racemic), the pIC50 was below 5.00.
As for `N#Cc1ccc(N2N=C3c4ccc(C(=O)O)cc4CC[C@H]3[C@H]2c2ccc(F)cc2)cc1Cl` (racemic), the pIC50 was 6.65.
Still for that read-out and setting: then `N#Cc1ccc(N2N=C(c3ccc(C(=O)O)cc3)CC2c2ccccn2)cc1` (racemic), with below 5.00.
The same measure, in the same setting: the figure for `N#Cc1ccc(N2N=C(c3ccc(C(=O)O)cc3)CC2c2ccncc2)cc1` (racemic) is below 5.00.
Same read-out and setting: the figure for `O=C(O)c1ccc(C2=NN(c3ccccc3)C(c3ccc(F)cc3)C2)cc1` (racemic) is 5.01; for `N#Cc1ccc(N2N=C3c4ccc(C(=O)O)cc4CC[C@@H]3[C@@H]2C2CC=CC2)cc1Cl` (racemic) it is 7.82; for `O=C(O)c1ccc(N2N=C(c3ccc4[nH]c(=O)oc4c3)CC2c2ccc(F)cc2)cc1` (racemic) it is 6.11.
`N#Cc1ccc(N2N=C3c4ccc(C(=O)O)cc4CC[C@@H]3[C@@H]2C2CCCC2)cc1O` (racemic) gave a pIC50 below 6.30.
The same measure, in the same setting: the figure for `N#Cc1ccc(N2N=C(c3ccc(C(=O)O)c(OC(F)(F)F)c3)C[C@@H]2C2CCCC2)cc1Cl` is 7.10.
The same measure, in the same setting: the figure for `N#Cc1ccc(N2N=C3c4ccc(C(=O)O)cc4C[C@@H]3[C@@H]2c2ccc(F)cc2)cc1` (racemic) is 5.36.
The molecule `N#Cc1ccc(N2N=C3c4ccc(C(=O)O)cc4CC[C@@H]3[C@@H]2C2CCCO2)cc1Cl` (mixture of isomers) showed a pIC50 of 6.14.
Same read-out and setting: then `N#Cc1ccc(N2N=C3c4ccc(C(=O)O)cc4CO[C@@H]3[C@@H]2c2ccc(F)cc2)cc1Cl` (racemic), with 6.07; and `N#Cc1ccc(N2N=C3c4ccc(C(=O)O)cc4CC[C@@H]3[C@@H]2C2C=CC=CO2)cc1Cl` (mixture of isomers), with 6.90; and `N#Cc1ccc(N2N=C(c3ccc(C(=O)O)cc3)CC2c2ccc(F)cc2)cc1Cl` (racemic), with 7.25.
Same read-out and setting: the figure for `N#Cc1ccc(N2N=C(c3ccc(C(=O)O)c(F)c3)C[C@@H]2C2CCCC2)cc1Cl` is 7.28; for `COc1cc(C2=NN(c3ccc(C#N)c(Cl)c3)[C@@H](C3CCCC3)C2C)ccc1C(=O)O` (single isomer, unassigned) it is 7.16; for `N#Cc1ccc(N2N=C(c3ccc(C(=O)O)cc3)CC2c2ccc(F)cc2)cc1C(F)(F)F` (racemic) it is 6.90.

In a further assay the target is Voltage-gated inwardly rectifying potassium channel KCNH2 (Homo sapiens, UniProt Q12809).
Voltage-gated inwardly rectifying potassium channel KCNH2, sequence (Q12809 whole entry): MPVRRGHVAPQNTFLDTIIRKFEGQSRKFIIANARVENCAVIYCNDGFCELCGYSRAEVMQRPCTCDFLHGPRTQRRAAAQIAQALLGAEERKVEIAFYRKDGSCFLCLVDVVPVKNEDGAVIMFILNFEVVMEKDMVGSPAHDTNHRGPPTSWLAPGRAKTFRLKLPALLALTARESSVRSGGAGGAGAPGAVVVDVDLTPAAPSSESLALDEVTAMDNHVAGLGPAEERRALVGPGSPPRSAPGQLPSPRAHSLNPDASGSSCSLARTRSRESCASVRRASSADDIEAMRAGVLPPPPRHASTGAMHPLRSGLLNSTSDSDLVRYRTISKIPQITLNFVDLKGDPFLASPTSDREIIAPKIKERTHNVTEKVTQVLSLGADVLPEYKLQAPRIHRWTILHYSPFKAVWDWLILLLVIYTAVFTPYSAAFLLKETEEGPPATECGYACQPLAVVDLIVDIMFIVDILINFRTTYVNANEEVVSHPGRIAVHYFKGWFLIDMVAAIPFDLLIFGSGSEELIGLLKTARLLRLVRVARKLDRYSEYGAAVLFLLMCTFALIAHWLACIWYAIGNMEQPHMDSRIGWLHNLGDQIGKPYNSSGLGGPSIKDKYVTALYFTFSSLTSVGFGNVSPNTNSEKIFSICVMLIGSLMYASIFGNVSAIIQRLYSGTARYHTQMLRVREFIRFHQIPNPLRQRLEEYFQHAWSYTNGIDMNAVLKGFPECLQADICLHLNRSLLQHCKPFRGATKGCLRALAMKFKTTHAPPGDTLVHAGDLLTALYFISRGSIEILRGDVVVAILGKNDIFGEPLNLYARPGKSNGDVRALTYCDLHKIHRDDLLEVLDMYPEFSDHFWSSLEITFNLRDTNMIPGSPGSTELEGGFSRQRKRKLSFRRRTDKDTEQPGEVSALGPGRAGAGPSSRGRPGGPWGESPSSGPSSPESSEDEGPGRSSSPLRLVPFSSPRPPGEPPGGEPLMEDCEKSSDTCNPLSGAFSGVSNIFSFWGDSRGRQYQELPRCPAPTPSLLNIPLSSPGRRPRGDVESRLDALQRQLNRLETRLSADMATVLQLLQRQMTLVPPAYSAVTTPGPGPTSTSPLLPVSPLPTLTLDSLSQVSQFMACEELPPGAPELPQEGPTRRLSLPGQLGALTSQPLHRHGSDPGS
`CN(C)CCN(C)C(=O)c1ccc(C2=NN(c3ccc(C#N)cc3)C(c3ccc(F)cc3)C2)cc1` (racemic) gave a negative-log IC50 (pIC50) of 6.77.
Same read-out and setting: the figure for `N#Cc1ccc(N2N=C(c3ccc4[nH]c(=O)oc4c3)C[C@@H]2c2ccc(F)cc2)cc1` is 7.54.
Same read-out and setting: the figure for `N#Cc1ccc(N2N=C(c3ccc(C(=O)O)cc3)CC2c2ccc(F)cc2)cc1` (racemic) is below 4.52; for `N#Cc1ccc(N2N=C(c3ccc4[nH]c(=O)oc4c3)CC2c2ccc(C(=O)O)cc2)cc1` (racemic) it is below 4.52.
On the same count and under the same terms, then `O=C(O)c1ccc(N2N=C(c3ccc4[nH]c(=O)oc4c3)CC2c2ccc(F)cc2)cc1` (racemic), with below 4.52.

(Values after ChEMBL document CHEMBL1212897 (J Med Chem, 2010).)
